From ChEMBL document CHEMBL3885861, “Open TG-GATES”

Species: Rattus norvegicus
Experiment: Open TG-GATES - Regimen: Single
Format: toxicity, organism-based, Sprague-Dawley
Design: regimen Single, gender Male, age 6 weeks
Conditions: in vivo, po, 100 mg/kg, route gavage, dose level Middle; for APTT / Bas / Eos / Fbg / Hb / Ht / Lym / MCH / MCHC / MCV / Mono / Neu / PT / Plat / RBC / Ret / WBC: tissue Blood; for KIDNEY_L / KIDNEY_R / KIDNEY_TOTAL: tissue Kidney; for LIVER: tissue Liver; for A/G / ALP / ALT / AST / BUN / CRE / Ca / Cl / DBIL / GLC / IP / K / LDH / Na / PL / RALB / TBIL / TC / TG / TP / gamma-GTP: tissue Plasma

## CCOC(=O)C(C)(C)Oc1ccc(Cl)cc1 [CLOFIBRATE]
3 h
  TERMINAL_BW: 227.5 g
  APTT: 18.9 s
  Bas: 0%
  Eos: 1%
  Fbg: 231.4 mg/dL
  Hb: 13.6 g/dL
  Ht: 39%
  Lym: 76.6%
  MCH: 20.9 pg
  MCHC: 34.8%
  MCV: 60.1 fL
  Mono: 2.6%
  Neu: 19.2%
  PT: 12.3 s
  Plat: 126.5 x10_4/uL
  RBC: 649.6 x10_4/ul
  Ret: 7.1%
  WBC: 87.8 x10_2/uL
  KIDNEY_L: 1 g
  KIDNEY_R: 1 g
  KIDNEY_TOTAL: 1.9 g
  LIVER: 9.9 g
  A/G: 1.6
  ALP: 1012.4 IU/L
  ALT: 36.8 IU/L
  AST: 68.2 IU/L
  BUN: 10 mg/dL
  CRE: 0.3 mg/dL
  Ca: 10.7 mg/dL
  Cl: 102.6 meq/L
  DBIL: 0.2 mg/dL
  GLC: 201.6 mg/dL
  IP: 9 mg/dL
  K: 3.8 meq/L
  LDH: 203.6 IU/L
  Na: 139.6 meq/L
  PL: 157.6 mg/dL
  RALB: 3.5 g/dL
  TBIL: 0.3 mg/dL
  TC: 75.2 mg/dL
  TG: 121 mg/dL
  TP: 5.7 g/dL
  gamma-GTP: 0.4 IU/L
6 h
  TERMINAL_BW: 227.2 g
  APTT: 18.9 s
  Bas: 0%
  Eos: 1%
  Fbg: 232.6 mg/dL
  Hb: 13.7 g/dL
  Ht: 39.5%
  Lym: 79.6%
  MCH: 20.8 pg
  MCHC: 34.6%
  MCV: 60.1 fL
  Mono: 3.2%
  Neu: 16%
  PT: 12.5 s
  Plat: 132.6 x10_4/uL
  RBC: 657.6 x10_4/ul
  Ret: 7.3%
  WBC: 89.7 x10_2/uL
  KIDNEY_L: 1 g
  KIDNEY_R: 1 g
  KIDNEY_TOTAL: 2 g
  LIVER: 10.1 g
  A/G: 1.6
  ALP: 987.8 IU/L
  ALT: 29.8 IU/L
  AST: 62.8 IU/L
  BUN: 9.2 mg/dL
  CRE: 0.4 mg/dL
  Ca: 10.9 mg/dL
  Cl: 102.4 meq/L
  DBIL: 0.1 mg/dL
  GLC: 196.2 mg/dL
  IP: 9.4 mg/dL
  K: 4.2 meq/L
  LDH: 223.6 IU/L
  Na: 139 meq/L
  PL: 146.8 mg/dL
  RALB: 3.5 g/dL
  TBIL: 0.2 mg/dL
  TC: 73.8 mg/dL
  TG: 106.4 mg/dL
  TP: 5.7 g/dL
  gamma-GTP: 0.6 IU/L
9 h
  TERMINAL_BW: 222.9 g
  APTT: 17.6 s
  Bas: 0%
  Eos: 1%
  Fbg: 227.4 mg/dL
  Hb: 13.3 g/dL
  Ht: 38.2%
  Lym: 80.2%
  MCH: 21 pg
  MCHC: 34.8%
  MCV: 60.5 fL
  Mono: 1.8%
  Neu: 16.6%
  PT: 12.9 s
  Plat: 137.6 x10_4/uL
  RBC: 630.2 x10_4/ul
  Ret: 7.4%
  WBC: 82.1 x10_2/uL
  KIDNEY_L: 1 g
  KIDNEY_R: 1 g
  KIDNEY_TOTAL: 2.1 g
  LIVER: 9.6 g
  A/G: 1.6
  ALP: 1028.4 IU/L
  ALT: 26.6 IU/L
  AST: 59.4 IU/L
  BUN: 9.8 mg/dL
  CRE: 0.4 mg/dL
  Ca: 10.4 mg/dL
  Cl: 101.4 meq/L
  DBIL: 0.088 mg/dL
  GLC: 206.4 mg/dL
  IP: 10.3 mg/dL
  K: 3.5 meq/L
  LDH: 182.4 IU/L
  Na: 140.2 meq/L
  PL: 120.4 mg/dL
  RALB: 3.4 g/dL
  TBIL: 0.1 mg/dL
  TC: 59.4 mg/dL
  TG: 73 mg/dL
  TP: 5.6 g/dL
  gamma-GTP: 0.6 IU/L
24 h
  TERMINAL_BW: 236 g
  APTT: 19.1 s
  Bas: 0%
  Eos: 1%
  Fbg: 223.8 mg/dL
  Hb: 13.6 g/dL
  Ht: 38.9%
  Lym: 79.8%
  MCH: 21.4 pg
  MCHC: 34.9%
  MCV: 61.4 fL
  Mono: 3.2%
  Neu: 15.4%
  PT: 12.6 s
  Plat: 131 x10_4/uL
  RBC: 633.6 x10_4/ul
  Ret: 7%
  WBC: 93.4 x10_2/uL
  KIDNEY_L: 1 g
  KIDNEY_R: 1 g
  KIDNEY_TOTAL: 2 g
  LIVER: 12 g
  A/G: 1.6
  ALP: 871 IU/L
  ALT: 36 IU/L
  AST: 65.6 IU/L
  BUN: 14.8 mg/dL
  CRE: 0.4 mg/dL
  Ca: 10.9 mg/dL
  Cl: 100.8 meq/L
  DBIL: 0.088 mg/dL
  GLC: 202 mg/dL
  IP: 7.5 mg/dL
  K: 3.7 meq/L
  LDH: 219.2 IU/L
  Na: 139.6 meq/L
  PL: 134.2 mg/dL
  RALB: 3.4 g/dL
  TBIL: 0.1 mg/dL
  TC: 60.4 mg/dL
  TG: 106.4 mg/dL
  TP: 5.6 g/dL
  gamma-GTP: 1 IU/L
